Measurements reported in PMC8022201, “Non‐canonical metabolic pathways in the malaria parasite detected by isotope‐tracing metabolomics” (Molecular Systems Biology, 2021).

Molecular target: T1, HAD4 (PfHAD4) (Plasmodium falciparum, UniProt Q8III4)
T1 construct: gene PF3D7_1118400
Assay: biochemical

T1 sequence (Q8III4 1-306): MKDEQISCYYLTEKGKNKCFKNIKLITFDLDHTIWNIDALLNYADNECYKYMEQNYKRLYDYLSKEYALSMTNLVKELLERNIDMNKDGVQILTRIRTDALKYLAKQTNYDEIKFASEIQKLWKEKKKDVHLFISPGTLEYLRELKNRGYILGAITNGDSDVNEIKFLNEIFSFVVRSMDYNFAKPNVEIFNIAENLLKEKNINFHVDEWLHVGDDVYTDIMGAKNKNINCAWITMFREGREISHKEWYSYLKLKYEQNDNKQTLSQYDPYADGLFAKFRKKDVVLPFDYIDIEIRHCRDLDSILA

**Q.** Which IC50 does the source give for `O=P(O)(O)O` [inorganic phosphate] here?
**A.** 2100 ± 210 µM
